Columns and labels:
[1] = test system: STAM™ mice, a murine model of NASH-HCC; assay: Murine STAM model of NASH-HCC: whole blood, plasma and liver biochemistry; details: for fasting whole blood glucose concentrations: 3 days prior to termination, 8 h fasting, oral daily wk 6-9; for fasting whole blood glucose concentrations / whole blood glucose levels / liver triglyceride content: gemcabene Form 1 30, 100, 300 mg/kg; for plasma ALP levels: vs vehicle-treated NASH group; for plasma triglyceride concentrations: gemcabene Form 1 30, 100, 300 mg/kg (dose-dependent manner)
[2] = test system: STAM™ mice, a murine model of NASH-HCC; assay: Murine STAM model of NASH-HCC: liver histology (H&E, NAFLD Activity Score, Sirius red fibrosis area); assay type: in vivo, mouse; set-up: key to NAS (mean ± SD) / NAFLD Activity Score: NAS = unweighted sum of steatosis, lobular inflammation, ballooning scores; details: for fibrosis area (Sirius red-positive area): all gemcabene Form 1 groups (30, 100, 300 mg/kg)
From the text: The present invention further provides methods for reducing a fibrosis score or a nonalcoholic fatty liver disease activity score in a subject, comprising administering to a subject in need thereof an effective amount of a tablet of the invention, gemcabene calcium salt hydrate Crystal Form 4, gemcabene calcium salt hydrate Crystal Form 5 or gemcabene calcium salt hydrate Crystal Form 6. The nonalcoholic fatty liver disease activity score (NAS or NAFLD score) is a composite score that measures changes in NAFLD during therapeutic trials. NAS is a composite score comprised of three components that includes scores for steatosis, lobular inflammation and hepatocyte ballooning (Table 36). NAS is the unweighted sum of the scores for steatosis, lobular inflammation and hepatocyte ballooning. Steatosis grade is quantified as the percentage of hepatocytes that contain fat droplets. The fibrosis stage of the liver is evaluated separately from NAS by histological evaluation of the intensity of Sirius red staining of collagen in the pericentral region of liver lobules.
A study was performed to evaluate the efficacy of gemcabene calcium salt hydrate Crystal Form 1 having a PSD90 of 52 μm as measured by laser light diffraction, in treating non-alcoholic steatosis hepatitis (NASH) in the murine STAM™ model of NASH-HCC.
Briefly, two-day old neonatal C57BL/6 male mice were administered low-dose streptozotocin (STZ), and were subsequently fed a HFC diet from 4 weeks of age. In this model, the mice typically develop liver steatosis and diabetes, reaching steatohepatitis within 3 weeks, followed by cirrhosis within 8 weeks, and carcinoma within 16 weeks. In the current study, mice were administered daily oral gemcabene calcium salt hydrate Crystal Form 1 starting at week 6 of age and were sacrificed at week 9. […] These STAM™ groups were orally administered from week 6 one of the following: water-vehicle, gemcabene calcium salt hydrate Crystal Form 1 at 30, 100 and 300 mg/kg daily, or telmisartan ([…]®) 10 mg/kg daily. […] All groups were sacrificed at week 9. Vehicle, gemcabene calcium salt hydrate Crystal Form 1, or telmisartan were administered by oral gavage once daily.
For Hematoxylin and Eosin (H&E) staining, sections were cut from paraffin blocks of liver tissue prefixed in Bouin's solution and stained with Lillie-Mayer's Hematoxylin (Muto Pure Chemicals Co., Ltd., Japan) and eosin solution (Wako Pure Chemical Industries). NAFLD Activity score (NAS) was calculated according to the criteria of Kleiner, D E. Et al., Hepatology, 2005; 41:1313-1321. To visualize collagen deposition, Bouin's fixed liver sections were stained using picro-Sirius red solution (Waldeck, Germany). For Masson Trichrome staining, the sections were stained with Masson's Trichrome staining Kit (Sigma, USA) according to the manufacturer's instructions.
For quantitative analysis of fibrosis area, bright field images of Sirius red-stained sections were captured around the central vein using a digital camera (DFC295; Leica, Germany) at 200-fold magnification, and the positive areas in 5 fields/section were measured using ImageJ software (National Institute of Health, USA). Samples were analyzed in a blinded fashion.

[3] = vs vehicle-treated STAM mice, telmisartan 10 mg/kg
[4] = at termination, gemcabene Form 1 100 and 300 mg/kg, telmisartan 10 mg/kg
[5] = at termination, vs vehicle-treated STAM mice, telmisartan 10 mg/kg
[6] = vs vehicle-treated STAM mice, gemcabene Form 1 100 and 300 mg/kg, telmisartan 10 mg/kg
[7] = vs vehicle-treated STAM mice, gemcabene Form 1 30 and 300 mg/kg, telmisartan 10 mg/kg
[8] = 10 mg/kg PO QD, Day 18 after 8 hours of fasting, mean ± SD, n = 8
[9] = 10 mg/kg PO QD, at termination (Day 21), mean ± SD, n = 7

Q: CC(C)(CCCCOCCCCC(C)(C)C(=O)O)C(=O)O.[Ca] [6-(5-Carboxy-5-methyl-hexyloxy)-2,2-dimethylhexanoic acid calcium] was tested. Which “fasting whole blood glucose concentrations” value [1, 3] did it give?
A: The value was “no significant differences”.

Q: And the “plasma CRP levels” value ([1]; STAM mice)?
A: The value was “decreased”.

Q: What about the “plasma ALP levels” value [1, 4] of the same compound?
A: The value was “significant increases”.

Q: And the plasma creatinine levels ([1]; at termination, vs vehicle-treated STAM group, gemcabene Form 1 300 mg/kg)?
A: Its plasma creatinine levels is “significant increase”.

Q: And the “plasma ALT levels” value ([1]; at termination, vs vehicle-treated STAM mice, gemcabene Form 1 100 mg/kg)?
A: Its value is “significant decrease”.

Q: What about the “whole blood glucose levels” value [1, 5] of the same compound?
A: Its value is “no significant differences”.

Q: What about the “plasma total cholesterol concentrations” value ([1]; vs vehicle-treated STAM mice, gemcabene Form 1 30 mg/kg) of the same compound?
A: Its value is “no significant difference”.

Q: And the plasma triglyceride concentrations [1, 3]?
A: Its plasma triglyceride concentrations is “significant decreases”.

Q: And the liver triglyceride content [1, 3]?
A: The liver triglyceride content was “no significant differences”.

Q: And the “plasma total cholesterol concentrations” value [1, 6]?
A: Its value is “significant increases”.

Q: What about the “micro- and macro-vesicular hepatic fat deposition, hepatocellular ballooning and inflammatory cell infiltration (H&E)” value ([2]; STAM mice) of the same compound?
A: The value was “diminished”.

Q: And the “fibrosis area (Sirius red-positive area)” value [2, 3]?
A: The value was “significant decreases”.

Q: And the “NAFLD Activity Score (NAS)” value ([2]; vs vehicle-treated STAM mice, gemcabene Form 1 100 mg/kg (trending lower))?
A: The value was “no significant difference”.

Q: And the “steatosis score and ballooning score” value ([2]; vs vehicle-treated STAM mice, gemcabene Form 1 300 mg/kg)?
A: Its value is “significant decrease”.

Q: What about the “NAFLD Activity Score (NAS)” value [2, 7] of the same compound?
A: Its value is “significant reduction”.

Q: And the “lobular inflammation and ballooning scores” value [2, 7]?
A: Its value is “lower”.

Q: And the “steatosis (H&E-stained liver sections)” value [2, 7]?
A: The value was “less steatosis”.

Q: Which results are given for CCCc1nc2c(C)cc(-c3nc4ccccc4n3C)cc2n1Cc1ccc(-c2ccccc2C(=O)O)cc1 [telmisartan, reference compound]?
A: Fasting blood glucose [1, 8]: 742 ± 90 mg/dL; Plasma insulin [1, 8]: 0.16 ± 0.04 ng/mL; Liver free fatty acid [1, 9]: 46.8 ± 10.7 pEq/g liver; Liver hydroxyproline [1, 9]: 0.91 ± 0.12 μg/mg total protein; Liver triglyceride [1, 9]: 31.7 ± 6.4 mg/g liver; Non-fasting blood glucose [1, 9]: 856 ± 62 mg/dL; Plasma ApoC-III [1, 9]: 6.2 ± 0.7 gg/mL; Plasma CRP [1, 9]: 3.0 ± 0.4 gg/mL; Plasma adiponectin [1, 9]: 6.8 ± 0.9 gg/mL; Plasma alanine aminotransferase [1, 9]: 39 ± 15 U/L; Plasma alkaline phosphatase [1, 9]: 567 ± 104 U/L; Plasma aspartate aminotransferase [1, 9]: 121 ± 38 U/L; Plasma blood urea nitrogen [1, 9]: 85.0 ± 17.4 mg/dL; Plasma creatinine [1, 9]: 0.1 ± 0.0 mg/dL; Plasma gamma-glutamyl transferase [1, 9]: 1 ± 0 U/L; Plasma ketone body [1, 9]: 8.11 ± 3.27 m M; Plasma leptin [1, 9]: 2.9 ± 1.1 ng/mL; Plasma total bilirubin [1, 9]: 0.3 ± 0.1 mg/dL; Plasma total cholesterol [1, 9]: 208 ± 19 mg/dL; Plasma triglyceride [1, 9]: 569 ± 256 mg/dL; fasting whole blood glucose concentrations [1, 3]: significant increase; plasma ALP levels [1, 4]: significant increases; whole blood glucose levels [1, 5]: significant increase; plasma BUN levels [1, 5]: significant increase; plasma triglyceride concentrations [1, 3]: no significant difference; liver triglyceride content [1, 3]: significant decrease; plasma total cholesterol concentrations [1, 6]: significant increases; Lobular Inflammation score 1: number of mice ([2]; 10 mg/kg PO QD, n = 7): 4; NAS (mean ± SD) ([2]; 10 mg/kg PO QD, n = 7): 2.6 ± 1.0; Steatosis score 0: number of mice ([2]; 10 mg/kg PO QD, n = 7, score 0 = <5%): 1; Lobular Inflammation score 0: number of mice ([2]; 10 mg/kg PO QD, n = 7, score 0 = No foci): 2; Hepatocyte Ballooning score 0: number of mice ([2]; 10 mg/kg PO QD, n = 7, score 0 = None): 2; Steatosis score 1: number of mice ([2]; 10 mg/kg PO QD, n = 7, score 1 = 5-33%): 6; Hepatocyte Ballooning score 1: number of mice ([2]; 10 mg/kg PO QD, n = 7, score 1 = Few balloon cells): 4; Lobular Inflammation score 2: number of mice ([2]; 10 mg/kg PO QD, n = 7, score 2 = 2-4 foci/200x): 1; Hepatocyte Ballooning score 2: number of mice ([2]; 10 mg/kg PO QD, n = 7, score 2 = Many cells/prominent ballooning): 1; NAFLD Activity Score ([2]; 10 mg/kg, STAM mice): 2.6; Sirius red-positive area ([2]; 10 mg/kg, STAM mice): 0.48%; fibrosis area (Sirius red-positive area) [2, 3]: significant decreases; NAFLD Activity Score (NAS) [2, 7]: significant reduction; lobular inflammation and ballooning scores [2, 7]: lower; steatosis (H&E-stained liver sections) [2, 7]: less steatosis

— patent publication US20200253877A1, “GEMCABENE, PHARMACEUTICALLY ACCEPTABLE SALTS THEREOF, COMPOSITIONS THEREOF AND METHODS OF USE THEREFOR” (NEUROBO PHARMACEUTICALS, INC., priority 2018, published 2020)
